pIC50: −log10 of the molar value.
Target: HeLa cell IDO1 (Homo sapiens (Human), UniProt P14902)
Experiment: HeLa cell based IDO1 inhibition assay (kynurenine readout, IFN-γ induced)
Details: HeLa cells
Method: HeLa cell line was purchased from ATCC, cultured in MEM/EBSS medium supplemented with 10% FBS, penn-step (100,000 U/L), non-essential amino acid (0.1 Mm), sodium pyruvate (1.0 Mm). Cells were cultured at 37° C., 95% humidity and 5% CO2. […] The detailed experimental method is as follow:
25,000 HeLa cells were placed on 96-well plates. Each well contained 100 μl culture medium, subsequently IFN-γ and test compounds at specific concentrations (concentration range between 10 μM and 1 Nm, so that the final volume of culture medium was 200 μL) were added and IFN-γ was used to induce IDO1 expression. After incubation, 140 μL supernatant was transferred to 96-well plates. After adding 6.1 N TCA (10 μL), the plates were continuously incubated at 50° C. for 30 min, to hydrolyze N-formylkynurenine produced by IDO to kynurenine. The reaction solution was then centrifuged at 2500 rpm for 10 min to remove precipitate. 100 μL/well supernatant was then transferred to another 96-well plate. 100 μL of 2% (w/v) 4-N,N-dimethyl aminobenzaldehyde acetic acid solution was added and incubated at room temperature for 10 min. The yellow color derived from kynurenine was recorded by measuring absorbance at 480 nm using a microplate reader (TECAN Infinite M1000 Pro).

HeLa cell IDO1, sequence (P14902 whole entry): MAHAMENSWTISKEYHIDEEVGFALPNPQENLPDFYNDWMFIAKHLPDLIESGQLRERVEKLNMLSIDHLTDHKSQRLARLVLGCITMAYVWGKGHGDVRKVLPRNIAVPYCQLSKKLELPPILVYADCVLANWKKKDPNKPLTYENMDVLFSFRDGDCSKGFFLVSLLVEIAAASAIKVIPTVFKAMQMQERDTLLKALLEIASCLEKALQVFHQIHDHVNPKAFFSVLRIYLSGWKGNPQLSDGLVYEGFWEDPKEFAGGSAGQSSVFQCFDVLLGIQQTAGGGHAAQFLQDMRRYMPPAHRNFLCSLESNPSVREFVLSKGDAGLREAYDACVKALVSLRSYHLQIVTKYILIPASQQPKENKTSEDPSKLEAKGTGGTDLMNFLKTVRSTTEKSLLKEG

SMILES | pIC50
O=S(=O)(NC1C2CC3CC1CC(C(O)CC1c4c(F)cccc4-c4cncn41)(C3)C2)c1ccccc1 (single isomer, unassigned) [Compound 47A] | > 7.00
O=C(Nc1ccccc1)NC1C2CC3CC1CC(C(O)CC1c4c(F)cccc4-c4cncn41)(C3)C2 (single isomer, unassigned) [Compound 55B] | 6.30 to 7.00
O=S(=O)(CC1CCC1)NC1C2CC3CC1CC(C(O)CC1c4c(F)cccc4-c4cncn41)(C3)C2 (single isomer, unassigned) [Compound 67B] | > 7.00
N#Cc1ccc(S(=O)(=O)NC2C3CC4CC2CC(C(O)CC2c5c(F)cccc5-c5cncn52)(C4)C3)cc1 (single isomer, unassigned) [Compound 69B] | 6.00 to 6.30

Next, values leading:

pIC50 | SMILES
> 7.00 | O=S(=O)(NC1C2CC3CC1CC(C(O)CC1c4c(F)cccc4-c4cncn41)(C3)C2)c1ccccc1 (single isomer, unassigned) [Compound 47B]
> 7.00 | O=C(Nc1ccccc1)NC1C2CC3CC1CC(C(O)CC1c4c(F)cccc4-c4cncn41)(C3)C2 (single isomer, unassigned) [Compound 55A]
> 7.00 | N#Cc1ccc(S(=O)(=O)NC2C3CC4CC2CC(C(O)CC2c5c(F)cccc5-c5cncn52)(C4)C3)cc1 (single isomer, unassigned) [Compound 69A]
> 7.00 | OC(CC1c2ccccc2-c2cncn21)C12CC3CC(C1)C(Nc1nc4ccccc4s1)C(C3)C2 (single isomer, unassigned) [Compound 125A]

Target: HeLa cell based IDO1 (Homo sapiens (Human), UniProt P14902)
Experiment: Three-point IDO1 cellular assay (HeLa, 10, 100 and 1000 nM)
Details: HeLa cells, at 10 nM, 100 ng/mL IFN-γ, 18 hours
Method: To perform the 3-point HeLa cell based IDO1 assay, HeLa cells were seeded at 25,000 cells per well into 96-well microplate in 100 μL of growth medium. Cells were incubated at 37° C. and 5% CO2 overnight. The next day 100 μL per well of diluted inhibitor in growth medium at 10, 100 and 1000 nM, respectively, was added at a final concentration of 100 ng/ML human IFN-γ. Cells were incubated at 37° C. in a CO2 incubator for 18 hours. […] The plate was incubated at 50° C. for 30 min to hydrolyze N-formylkynurenine produced by IDO1 to kynurenine. The plate was then centrifuged at 2500 rpm for 10 min to remove sediments. 100 μl of supernatant per well was transferred to another 96-well plate and mixed with 100 μL of 2% (w/v) 4-(Dimethylamino) benzaldehyde in acetic acid. The plate was incubated at room temperature for 10 minutes, the yellow color derived from kynurenine was recorded by measuring absorbance at 480 nm using a microplate reader (TECAN Infinite M1000 Pro). Cell based assays were performed in triplicate at each concentration. The absorbance data were analyzed using the computer software, Graphpad Prism. In the absence of the compound and presence of 100 ng/ML IFN-γ, the absorbance (At) in each data set was defined as 100%. The absorbance of medium blank (Ab) in each data set was defined as 0%. The percent absorbance in the presence of each compound was calculated according to the following equation: % Absorbance=(A−Ab)/(At−Ab), where A=the absorbance in the presence of the compound and IFN-γ, Ab=the absorbance of medium blank, and At=the absorbance in the absence of the compounds and presence of IFN-γ. The values of % absorbance versus the compound concentrations were then determined.

HeLa cell based IDO1, sequence (P14902 whole entry): as above

inhibition at 0.01 µM | SMILES
> 50% | OC(CC1c2c(F)cccc2-c2cncn21)C12CC3CC(C1)C(Nc1nc4ccccc4s1)C(C3)C2 (stereo not shown) [Compound 126]

Same assay, conditions: HeLa cells, at 100 nM, 100 ng/mL IFN-γ, 18 hours

SMILES | inhibition at 0.1 µM | inhibition values of %
O=C(Nc1ccc2ccccc2c1)NC1C2CC3CC1CC(C(O)CC1c4c(F)cccc4-c4cncn41)(C3)C2 (stereo not shown) [Compound 110A] | > 50% | 
O=C(NCC1CCC1)NC1C2CC3CC1CC(C(O)CC1c4c(F)cccc4-c4cncn41)(C3)C2 (stereo not shown) [Compound 111A] | > 50% | 
O=C1N(c2ccc(F)cc2)CCN1C1C2CC3CC1CC(C(O)CC1c4c(F)cccc4-c4cncn41)(C3)C2 (stereo not shown) [Compound 122] |  | greater than 50%
OC(CC1c2c(F)cccc2-c2cncn21)C12CC3CC(C1)C(Nc1nc4cccnc4o1)C(C3)C2 (stereo not shown) [Compound 127] |  | greater than 50%
OC(CC1c2c(F)cccc2-c2cncn21)C12CC3CC(C1)C(OCCN1CCOCC1)C(C3)C2 (stereo not shown) [Compound 135A] | > 50% | 
OC(COC1C2CC3CC1CC(C(O)CC1c4c(F)cccc4-c4cncn41)(C3)C2)c1ccccc1 (stereo not shown) [Compound 136] |  | greater than 50%
O=S(=O)(Nc1ccccc1)NC1C2CC3CC1CC(C(O)CC1c4ccccc4-c4cncn41)(C3)C2 (stereo not shown) [Compound 151] |  | greater than 50%
O=C(Nc1ccc(F)cc1)NC12CC3CC(C1)C(C(O)CC1c4ccccc4-c4cncn41)C(C3)C2 (stereo not shown) [Compound 163A] | > 50% | 
Cc1ccc(NC(=O)NC23CC4CC(C2)C(C(O)CC2c5ccccc5-c5cncn52)C(C4)C3)cc1 (stereo not shown) [Compound 164A] | > 50% | 
O=S(=O)(NC12CC3CC(C1)C(C(O)CC1c4ccccc4-c4cncn41)C(C3)C2)c1ccc(C(F)(F)F)cc1 (stereo not shown) [Compound 166B] | > 50% | 

Second part, led by results:

inhibition at 0.1 µM | SMILES | inhibition values of %
> 50% | O=C(Nc1ccc(F)cc1F)NC1C2CC3CC1CC(C(O)CC1c4c(F)cccc4-c4cncn41)(C3)C2 (stereo not shown) [Compound 105A] | 
> 50% | O=C(NCC1CC1)NC1C2CC3CC1CC(C(O)CC1c4c(F)cccc4-c4cncn41)(C3)C2 (stereo not shown) [Compound 107A] | 
> 50% | Cc1ccc(NS(=O)(=O)NC2C3CC4CC2CC(C(O)CC2c5ccccc5-c5cncn52)(C4)C3)cc1 (stereo not shown) [Compound 153] | 
> 50% | O=S(=O)(NC12CC3CC(C1)C(C(O)CC1c4ccccc4-c4cncn41)C(C3)C2)C1CC1 (stereo not shown) [Compound 169A] | 
> 50% | O=C(CC1CCCCC1)NC12CC3CC(C1)C(C(O)CC1c4c(F)cccc4-c4cncn41)C(C3)C2 (stereo not shown) [Compound 192A] | 
> 50% | Cc1ccc(CC(=O)NC23CC4CC(C2)C(C(O)CC2c5c(F)cccc5-c5cncn52)C(C4)C3)cc1 (stereo not shown) [Compound 193A] | 

Same assay, conditions: HeLa cells, at 1000 nM, 100 ng/mL IFN-γ, 18 hours

SMILES | inhibition at 1 µM | inhibition values of %
O=C(NCC1CCOC1)NC1C2CC3CC1CC(C(O)CC1c4c(F)cccc4-c4cncn41)(C3)C2 (stereo not shown) [Compound 112A] | > 50% | 
OC(CC1c2c(F)cccc2-c2cncn21)C12CC3CC(C1)C(OCCN1CCOCC1)C(C3)C2 (stereo not shown) [Compound 135B] | > 50% | 
N#Cc1ccc(C2(O)C3CC4CC2CC(C(O)CC2c5c(F)cccc5-c5cncn52)(C4)C3)cc1 (stereo not shown) [Compound 145] | > 50% | 
O=S(=O)(Nc1ccc(F)cc1)NC1C2CC3CC1CC(C(O)CC1c4ccccc4-c4cncn41)(C3)C2 (stereo not shown) [Compound 152] | > 50% | 
Cc1ccc(NC(=O)NC23CC4CC(C2)C(C(O)CC2c5ccccc5-c5cncn52)C(C4)C3)cc1 (stereo not shown) [Compound 164B] | > 50% | 
O=S(=O)(CC1CCCCC1)NC12CC3CC(C1)C(C(O)CC1c4ccccc4-c4cncn41)C(C3)C2 (stereo not shown) [Compound 170A-A] | > 50% | 
OC(CC1c2c(F)cccc2-c2cncn21)C12CC3CC(C1)N(c1ncc(-c4ccccc4)o1)C(C3)C2 (stereo not shown) [Compound 210] | > 50% | 

Results, then the compound that gave them:

inhibition at 1 µM | inhibition values of % | SMILES
> 50% |  | O=C(NC1CC1)NC1C2CC3CC1CC(C(O)CC1c4c(F)cccc4-c4cncn41)(C3)C2 (stereo not shown) [Compound 106A]
> 50% |  | O=C(Nc1cccc2ccccc12)NC1C2CC3CC1CC(C(O)CC1c4c(F)cccc4-c4cncn41)(C3)C2 (stereo not shown) [Compound 109A]
> 50% |  | Cn1cc(NC(=O)NC2C3CC4CC2CC(C(O)CC2c5c(F)cccc5-c5cncn52)(C4)C3)cn1 (stereo not shown) [Compound 114A]
> 50% |  | OC(CC1c2c(F)cccc2-c2cncn21)C12CC3CC(C1)C(OCc1ccccc1)C(C3)C2 (stereo not shown) [Compound 133]
> 50% |  | OC(COC1C2CC3CC1CC(C(O)CC1c4c(F)cccc4-c4cncn41)(C3)C2)C1CCCCC1 (stereo not shown) [Compound 137]
 | greater than 50% | OCCC1(O)C2CC3CC1CC(C(O)CC1c4c(F)cccc4-c4cncn41)(C3)C2 (stereo not shown) [Compound 142]
> 50% |  | OC(CC1c2c(F)cccc2-c2cncn21)C12CC3CC(C1)C(O)(c1cccnc1)C(C3)C2 (stereo not shown) [Compound 146]
> 50% |  | O=C(Nc1ccc(F)cc1)NC12CC3CC(C1)C(C(O)CC1c4ccccc4-c4cncn41)C(C3)C2 (stereo not shown) [Compound 163B]
> 50% |  | O=S(=O)(NC12CC3CC(C1)C(C(O)CC1c4ccccc4-c4cncn41)C(C3)C2)C1CC1 (stereo not shown) [Compound 169B]
> 50% |  | N#Cc1ccc(NC(=O)NC23CC4CC(C2)C(C(O)CC2c5c(F)cccc5-c5cncn52)C(C4)C3)cc1 (stereo not shown) [Compound 191A]
> 50% |  | CC(=O)Nc1ccc(S(=O)(=O)NC23CC4CC(C2)C(C(O)CC2c5ccccc5-c5cncn52)C(C4)C3)cc1 (stereo not shown) [Compound 201A]
> 50% |  | O=S(=O)(Cc1ccccc1)N1C2CC3CC1CC(C(O)CC1c4c(F)cccc4-c4cncn41)(C3)C2 (stereo not shown) [Compound 205]
> 50% |  | O=S(=O)(c1ccccc1)N1C2CC3CC1CC(C(O)CC1c4c(F)cccc4-c4cncn41)(C3)C2 (stereo not shown) [Compound 206]
> 50% |  | O=C(Cc1ccc(F)cc1)N1C2CC3CC1CC(C(O)CC1c4c(F)cccc4-c4cncn41)(C3)C2 (stereo not shown) [Compound 207]

Source: patent publication US10202388B2, “Fused-ring compounds, pharmaceutical composition and uses thereof” (SHANGHAI DE NOVO PHARMATECH CO., LTD., priority 2015, dated 2019)
